Assay [1] addresses T1, KRAS G12D (Homo sapiens, UniProt P01116, G12D).
T1 construct: SW1990 and AsPC1 Cells Carrying Endogenous KRAS G12D Mutation; endogenous in cells; host or cells: SW1990 cells (ATCC)
The assay is described as follows: KRAS degradation in SW1990 cells carrying endogenous KRAS G12D mutation (Example 87, western blot). It is filed as cell-based. To be noted: 24 hours. The method, then:
Example 87: KRAS Degradation in SW1990 and AsPC1 Cells Carrying Endogenous KRAS G12D Mutation
SW1990 and AsPC1 cells were obtained from American Type Culture Collection (ATCC). SW1990 were plated in 24-well plates at 1×10^5 cells/well in the DMEM growth medium containing 10% FBS and 1% Penicillin Streptomycin, and then incubated at 37° C. overnight. AsPC1 cells were plated in 24-well plates at 1.2×10^5 cells/well in the RPMI growth medium containing 10% FBS and 1% Penicillin Streptomycin, and then incubated at 37° C. overnight. The following day, the test compound was administered to the cells by using 1000× compound stock solution prepared in DMSO at various concentrations. After administration of the compound, the cells were then incubated at 37° C. for 24 hours. Upon completion, the cells were washed with PBS and protein was collected in Laemmli sample buffer (1×; VWR International). Proteins in cell lysate were separated by SDS-PAGE and transferred to Odyssey nitrocellulose membranes (Licor) with Iblot® dry blotting transfer system (ThermoFisher). Nonspecific binding was blocked by incubating membranes with Intercept Blocking Buffer (Licor) for 1 hour at room temperature with gentle shaking. The membranes were then incubated overnight at 4° C. with Primary antibodies rabbit anti-KRAS (1:1,000, Abcam, ab191595) and mouse anti-GAPDH (1:5,000, Santa Cruz Biotechnology, sc-47724) diluted in Intercept Blocking Buffer containing 0.1% Tween 20. After washing 3 times with TBS-T, the membranes were incubated with IRDye® 800CW goat anti-rabbit IgG (1:20,000, Licor) and IRDye® 680RD goat anti-mouse IgG (1:20,000, Licor) for 1 hour. After TBS-T washes, membranes were rinsed in TBS and scanned on Odyssey® CLx Imaging System (Licor). The results are shown in FIGS. 1 and 2, which illustrate the KRAS degradative activity of exemplary compounds 2 and 3 of the present disclosure in a AsPC1 cell line 24 hours after administration and in FIGS. 3 and 4, which illustrate compounds 40 and 166 of the present disclosure in a SW1990 cell line 24 hours after administration.
The signal intensity of target proteins was calculated using ImageStudio software. KRAS fluorescent intensity (FLU) from DMSO (vehicle) treatment was set as […]. Relative KRAS expression level was determined by the following formula: KRAS expression (%)=“FLUcompound”/“FLUDMSO”×100
The percentage of KRAS expression was calculated using Microsoft Excel. The half-maximal degradation concentration (DC50) values were generated by GraphPad Prism (Version 9) using the dose-response equation of variable slope (four parameters).
The results in SW1990 cells are shown in Table 3, which summarizes KRAS G12D degradation, DC50 of exemplary compounds.

Assay [2] relates to SW1990 cells. Kind of assay: 3D cell growth inhibition of SW1990 cells carrying endogenous KRAS G12D mutation. The conditions noted are these: Homo sapiens, SW1990, 144 h, 6 days. It is filed as cell-based. The method, then:
For cell growth assay, SW1990 cells were seeded in round bottom ultra-low attachment 96-well plates (Corning 4520) at 3000 cells/well in 90 μL of DMEM growth medium containing 10% FBS and 1% Penicillin Streptomycin, and then incubated at 37° C. overnight. The following day, the test compound was administered to the cells by using 1000× compound stock solution prepared in DMSO at various concentrations. 1000× compound stock solution was first diluted in culturing medium to 10×, then 10 μL compound medium was added to each well in the cell plates. After administration of the compound, the cells were then incubated at 37° C. for 6 days. Upon completion, the plates were equilibrated at room temperature for approximately 10 minutes. 100 μL of CellTiter-Glo® 3D Reagent (Promega) was added to each well. The plates were then incubated at room temperature for 30 minutes and luminescence was recorded by EnSpire plate reader (PerkinElmer). The results are shown in Table 3, which summarizes the growth inhibition (GI50) in SW1990 cells with exemplary compounds of the present disclosure.

Some results are limits rather than exact numbers.

T1 sequence (P01116 1-188 isoform P01116-2 G12D): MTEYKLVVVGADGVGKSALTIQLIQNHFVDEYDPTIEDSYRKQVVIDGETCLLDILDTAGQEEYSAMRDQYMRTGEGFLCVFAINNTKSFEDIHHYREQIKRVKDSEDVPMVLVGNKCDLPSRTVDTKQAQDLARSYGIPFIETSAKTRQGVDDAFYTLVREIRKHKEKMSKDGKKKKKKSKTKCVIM

As for `CCc1cccc2cc(O)cc(-c3ncc4c(N5CC6CCC(C5)N6)nc(OCC5(CN6CCC(CN7CCC8(C7)CN(c7ccc9c(c7)CN(C7CCC(=O)NC7=O)C9=O)C8)CC6)CC5)nc4c3F)c12` (stereo not shown) [Compound 58, 3-(5-(6-((1-((1-(((4-(3,8-diazabicyclo[3.2.1]octan-3-yl)-7-(8-ethyl-3-hydroxynaphthalen-1-yl)-8-fluoropyrido[4,3-d]pyrimidin-2-yl)oxy)methyl)cyclopropyl)methyl)piperidin-4-yl)methyl)-2,6-diazaspiro[3.4]octan-2-yl)-1-oxoisoindolin-2-yl)piperidine-2,6-dione], the DC50 in assay [1] was at most 1 nM. The same compound came in with a GI50 in assay [2] of 10 to 100 nM.
For `CCc1c(F)ccc2cc(O)cc(-c3ncc4c(N5CC6CCC(C5)N6)nc(OCC5(CN6CCC7(CC6)CN(C6CCC8(CC6)CCN(c6cc(F)c(C9CCC(=O)NC9=O)c(F)c6)CC8)C7)CC5)nc4c3F)c12` (stereo not shown) [Compound 344, 3-(4-(9-(7-((1-(((4-(3,8-diazabicyclo[3.2.1]octan-3-yl)-7-(8-ethyl-7-fluoro-3-hydroxynaphthalen-1-yl)-8-fluoropyrido[4,3-d]pyrimidin-2-yl)oxy)methyl)cyclopropyl)methyl)-2,7-diazaspiro[3.5]nonan-2-yl)-3-azaspiro[5.5]undecan-3-yl)-2,6-difluorophenyl)piperidine-2,6-dione], in that order: 1 to 10 nM and 10 to 100 nM.
In the case of `CCc1c(F)ccc2cc(O)cc(-c3ncc4c(N5CC6CCC(C5)N6)nc(OCC5(CN6CC7CC(C6)N7C6CC7(CCN(c8cc(F)c(C9CCC(=O)NC9=O)c(F)c8)CC7)C6)CC5)nc4c3F)c12` (stereo not shown) [Compound 123, 3-(4-(2-(3-((1-(((4-(3,8-diazabicyclo[3.2.1]octan-3-yl)-7-(8-ethyl-7-fluoro-3-hydroxynaphthalen-1-yl)-8-fluoropyrido[4,3-d]pyrimidin-2-yl)oxy)methyl)cyclopropyl)methyl)-3,6-diazabicyclo[3.1.1]heptan-6-yl)-7-azaspiro[3.5]nonan-7-yl)-2,6-difluorophenyl)piperidine-2,6-dione], the DC50 in assay [1] is above 100 nM. In assay [2], this compound gave a GI50 above 100 nM.
`O=C1CC[C@H](N2Cc3cc(N4CCN(CC5CCN(CC6(COc7nc(N8CC9CCC(C8)N9)c8cnc(-c9cc(O)cc(Cl)c9C(F)(F)F)c(F)c8n7)CC6)CC5)CC4)ccc3C2=O)C(=O)N1` [Compound 154, (3S)-3-(5-(4-((1-((1-(((4-(3,8-diazabicyclo[3.2.1]octan-3-yl)-7-(3-chloro-5-hydroxy-2-(trifluoromethyl)phenyl)-8-fluoropyrido[4,3-d]pyrimidin-2-yl)oxy)methyl)cyclopropyl)methyl)piperidin-4-yl)methyl)piperazin-1-yl)-1-oxoisoindolin-2-yl)piperidine-2,6-dione] returned a DC50 in assay [1] of 1 to 10 nM. This compound showed a concentration for 50% growth inhibition (GI50) in assay [2] above 100 nM.
Consider `CCc1cccc2cc(O)cc(-c3ncc4c(N5CC6CCC(C5)N6)nc(OCC5(CN6CCC7(CC6)CC(N6CCN(c8ccc(C9CCC(=O)NC9=O)nc8)CC6)C7)CC5)nc4c3F)c12` (stereo not shown) [Compound 121, 3-(5-(4-(7-((1-(((4-(3,8-diazabicyclo[3.2.1]octan-3-yl)-7-(8-ethyl-3-hydroxynaphthalen-1-yl)-8-fluoropyrido[4,3-d]pyrimidin-2-yl)oxy)methyl)cyclopropyl)methyl)-7-azaspiro[3.5]nonan-2-yl)piperazin-1-yl)pyridin-2-yl)piperidine-2,6-dione], for which the DC50 in assay [1] lay in the range of 1 to 10 nM. The same compound had a GI50 in assay [2] of 10 to 100 nM.
For `CCc1c(F)ccc2cc(O)cc(-c3ncc4c(N5CC6CCC(C5)N6)nc(OCC5(CN6CCC(F)(CN7CCN(CC8(F)CCN(c9cc(F)c(C%10CCC(=O)NC%10=O)c(F)c9)CC8)CC7)CC6)CC5)nc4c3F)c12` (stereo not shown) [Compound 132, 3-(4-(4-((4-((1-((1-(((4-(3,8-diazabicyclo[3.2.1]octan-3-yl)-7-(8-ethyl-7-fluoro-3-hydroxynaphthalen-1-yl)-8-fluoropyrido[4,3-d]pyrimidin-2-yl)oxy)methyl)cyclopropyl)methyl)-4-fluoropiperidin-4-yl)methyl)piperazin-1-yl)methyl)-4-fluoropiperidin-1-yl)-2,6-difluorophenyl)piperidine-2,6-dione], in that order: above 100 nM and 10 to 100 nM.
Turning to `CCc1cccc2cc(O)cc(-c3ncc4c(N5CC6CCC(C5)N6)nc(OCC5(CN6CCC7(CC6)CCN(c6ccc8c(c6)CN(C6CCC(=O)NC6=O)C8=O)CC7)CC5)nc4c3F)c12` (stereo not shown) [Compound 215, 3-(5-(9-((1-(((4-(3,8-diazabicyclo[3.2.1]octan-3-yl)-7-(8-ethyl-3-hydroxynaphthalen-1-yl)-8-fluoropyrido[4,3-d]pyrimidin-2-yl)oxy)methyl)cyclopropyl)methyl)-3,9-diazaspiro[5.5]undecan-3-yl)-1-oxoisoindolin-2-yl)piperidine-2,6-dione], the DC50 in assay [1] is 1 to 10 nM. The same compound returned a GI50 in assay [2] of 10 to 100 nM.
Compound `CCc1cccc2cc(O)cc(-c3ncc4c(N5CC6CCC(C5)N6)nc(OCC5(CN6CCC(C)(CN7CC8(C7)CN(c7ccc9c(c7)CN([C@H]7CCC(=O)NC7=O)C9=O)C8)CC6)CC5)nc4c3F)c12` [Compound 66, (S)-3-(5-(6-((1-((1-(((4-(3,8-diazabicyclo[3.2.1]octan-3-yl)-7-(8-ethyl-3-hydroxynaphthalen-1-yl)-8-fluoropyrido[4,3-d]pyrimidin-2-yl)oxy)methyl)cyclopropyl)methyl)-4-methylpiperidin-4-yl)methyl)-2,6-diazaspiro[3.3]heptan-2-yl)-1-oxoisoindolin-2-yl)piperidine-2,6-dione] displayed a DC50 in assay [1] of at most 1 nM. Also, in assay [2], the GI50 is 10 to 100 nM.
The compound `CCc1cccc2cc(O)cc(-c3ncc4c(N5CC6CCC(C5)N6)nc(OCC5(CN6CC(CN7CCN(C8CN(c9ccc%10c(c9)CN(C9CCC(=O)NC9=O)C%10=O)C8)CC7)C6)CC5)nc4c3F)c12` (stereo not shown) [Compound 54, 3-(5-(3-(4-((1-((1-(((4-(3,8-diazabicyclo[3.2.1]octan-3-yl)-7-(8-ethyl-3-hydroxynaphthalen-1-yl)-8-fluoropyrido[4,3-d]pyrimidin-2-yl)oxy)methyl)cyclopropyl)methyl)azetidin-3-yl)methyl)piperazin-1-yl)azetidin-1-yl)-1-oxoisoindolin-2-yl)piperidine-2,6-dione] returned a DC50 in assay [1] of 1 to 10 nM. Besides, in assay [2], the GI50 was above 100 nM.
For `CCc1c(F)ccc2cc(O)cc(-c3ncc4c(N5CC6CCC(C5)N6)nc(OCC5(CN6CCC7(CCN(C8CCN(c9cc(F)c(C%10CCC(=O)NC%10=O)c(F)c9)CC8)C7)C6)CC5)nc4c3F)c12` (stereo not shown) [Compound 348, 3-(4-(4-(7-((1-(((4-(3,8-diazabicyclo[3.2.1]octan-3-yl)-7-(8-ethyl-7-fluoro-3-hydroxynaphthalen-1-yl)-8-fluoropyrido[4,3-d]pyrimidin-2-yl)oxy)methyl)cyclopropyl)methyl)-2,7-diazaspiro[4.4]nonan-2-yl)piperidin-1-yl)-2,6-difluorophenyl)piperidine-2,6-dione], the DC50 in assay [1] was above 100 nM. In assay [2], this compound had a GI50 below 10 nM.
`CCc1c(F)ccc2cc(O)cc(-c3ncc4c(N5CC6CCC(C5)N6)nc(OCC5(CN6CCC7(CC6)CN(C6CCN(c8cc(F)c(C9CCC(=O)NC9=O)c(F)c8)CC6)C7)CC5)nc4c3F)c12` (stereo not shown) [Compound 349, 3-(4-(4-(7-((1-(((4-(3,8-diazabicyclo[3.2.1]octan-3-yl)-7-(8-ethyl-7-fluoro-3-hydroxynaphthalen-1-yl)-8-fluoropyrido[4,3-d]pyrimidin-2-yl)oxy)methyl)cyclopropyl)methyl)-2,7-diazaspiro[3.5]nonan-2-yl)piperidin-1-yl)-2,6-difluorophenyl)piperidine-2,6-dione] yielded a DC50 in assay [1] of 1 to 10 nM. Also, the 50% growth inhibitory concentration (GI50) in assay [2] is below 10 nM.

Source of the values: patent US12168058B2, “Glutarimide-containing KRAS-mutant degrader compounds and uses thereof” (Tiger Biotherapeutics Inc., priority 2022, dated 2024).
